The record followed here is publication PMC12518639, “Apomorphine is a novel necroptosis inhibitor targeting mixed lineage kinase domain-like protein oligomerization” (Cell Death Discovery, 2025).

One data set addresses T1, Nt-hMLKL^F148A (Homo sapiens, UniProt Q8NB16, F148A).
T1 construct: an N-terminal domain (Nt-hMLKL, amino acids 2–154, MW: 23 kDa) involved in oligomerization; His (N); made in house; host or cells: E. coli BL21
Kind of data set: SPR binding to Nt-hMLKL F148A mutant. To be noted: versus Nt-hMLKL. The text has this:
(§1) The hMLKL plasmid (RC213152, OriGene, Rockville, MD, USA), and recombinant Wt-hMLKL (ab241453, Abcam) and Wt-mMLKL (MBS1379843, MyBioSource, San Diego, CA, USA) proteins were purchased. Nt-hMLKL (2–154), Nt-mMLKL (1–180), and Ct-hMLKL (183–471) were generated using the pBT7-N-His vector. Nt-hMLKL^C86A, Nt-hMLKL^F148A, -hMLKL^C86A/L89A/D94A, and Nt-hMLKL^R145A/R146A/F148A/M150A were generated using the Site-directed Mutagenesis Kit (EZ004S, Enzynomics, S. Korea). These constructs were subcloned into pBT7-N-His and pET-15b plasmid vectors. E. coli BL21 cells transformed with the cloned expression vectors were cultured in LB medium and supplemented with 100 μg/mL ampicillin until an OD at 600 nm of 0.5–0.6 was reached. The cultures were induced by 1 mM IPTG (367-93-1, Sigma-Aldrich). The cells were lysed and centrifuged. The clear supernatants were subjected to Ni-NTA affinity chromatography (175018169, QIAGEN, Hilden, Germany). Plasmids encoding mMLKL (1–464)–gyrase fusion constructs were kindly provided by Prof. […]
(§2) The interactions of Wt-hMLKL, Wt-mMLKL, Nt-mMLKL, Nt, and Ct-hMLKL proteins with Re-APO or Ox-APO were detected through SPR analysis using Biacore™ T200 (Cytiva, Marlborough, MA, USA). […] Sensorgrams were recorded and analyzed in real-time using the control software in the BIAcore T200 system. All data were analyzed using the BIA evaluation software (Cytiva).

Data set [1] has as its system J774A.1 cells transfected with Wt-mMLKL (1–464)-gyrase. As to the kind of experiment: PI uptake after chemically induced mMLKL-gyrase dimerization. To be noted: 20 μM overnight. It is filed as cell-based, mouse. Here is the method: PI uptake assays were performed in triplicate to evaluate pore formation on the plasma membrane. THP‑1 cells (2 × 10⁵ cells/well) were seeded in black-walled, clear-bottom 96-well plates and treated with TBZ (TNF, BV6, and z-VAD-FMK) in the presence or absence of candidate compounds for 8 h to induce necroptosis. […] PI (556463, BD Biosciences, San Jose, CA, USA) was added at a final concentration of 1 μg/mL for 10 min before measurement. Fluorescence was recorded using a Varioskan Flash 3001 plate reader (Thermo Fisher Scientific, Waltham, MA, USA).
J774A.1 cells were transfected with plasmids encoding mMLKL (1–464)-gyrase. mMLKL-gyrase expression was induced with 10 ng/mL doxycycline (Dox), followed by 700 nM coumermycin treatment for 4 h to promote dimerization. Then, Ox-APO (20 μM) was added, and the cells were incubated overnight. PI uptake was measured using a microplate reader, and the values were normalized to those of the untreated group. Data represent mean ± SEM (n = 3). **p < 0.01, ***p < 0.001, one-way ANOVA. The expression of mMLKL-gyrase was confirmed by SDS-PAGE of WCLs, followed by immunoblotting with the indicated antibodies. The arrowhead indicates endogenous MLKL, while the tailed arrow denotes the mMLKL–gyrase fusion protein.

The target in a further data set is T2, Nt-hMLKL^C86A/L89A/D94A (Homo sapiens, UniProt Q8NB16, C86A/D94A/L89A).
T2 construct: an N-terminal domain (Nt-hMLKL, amino acids 2–154, MW: 23 kDa) involved in oligomerization; His (N); made in house; host or cells: E. coli BL21
T2 sequence (Q8NB16 2-154 C86A/L89A/D94A): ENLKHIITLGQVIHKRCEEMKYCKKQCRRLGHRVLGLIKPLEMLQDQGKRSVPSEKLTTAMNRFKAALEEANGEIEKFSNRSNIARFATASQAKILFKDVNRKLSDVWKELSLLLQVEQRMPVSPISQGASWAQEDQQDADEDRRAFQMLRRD
Kind of data set: SPR binding to Nt-hMLKL triple mutant. The following applies: CM5 chip.
Source text: as §1, §2

A short description of data set [2]: Auto-oxidation of APO in solution by real-time 1D 1H NMR. It is filed as physicochemical. The following applies: freshly dissolved in DPBS, 25 °C, 36 h. On the procedure:
Fig. 2 Effect of redox-sensitive APO on MLKL oligomerization. A Chemical structure of APO. APO undergoes auto-oxidation to form the oxidized form (Ox-APO), while the addition of DTT preserves the reduced form (Re-APO). The red highlights indicate the sites where APO loses hydrogen and electrons during the oxidation process. B Real-time 1D ^1H NMR spectra showing the degree of oxidation of APO. APO was dissolved from its powdered form in DPBS and incubated at 25 °C for 36 h. Real-time 1D ^1H NMR spectra were measured at a 2 h intervals after filtration through a 0.2 μm syringe filter to remove precipitates. […] C MLKL oligomerization is inhibited by APO. THP-1 cells were treated with TBZ and Re-APO or Ox-APO for 8 h. Western blot analysis of WCLs was performed under non-reducing and reducing conditions using the indicated antibodies. Percentage changes of p-MLKL oligomer band relative to GAPDH were shown. The p value for MLKL oligomer band intensity was calculated based on the average intensity of the tetramer and octamer bands. Octa octamer, Tetra tetramer, Mono monomer. Mean ± SEM (n = 3). **p < 0.001, ns not significant, one-way ANOVA. D THP-1 cells were treated with TBZ and Ox-APO or Re-APO for 8 h and then stained with DAPI and MLKL for confocal microscopy. […] The signal intensity of MLKL fluorescence from the plasma membrane to the cytosol was measured using FluoView FV1000 software. […]

T1 sequence (Q8NB16 2-154 F148A): as the sequence (Q8NB16 2-154 C86A/L89A/D94A) above, with A85C, A88L, A93D, F147A counted along it

`CN1CCc2cccc3c4c(cc1c23)C=CC(=O)C4=O` [Ox-APO]: the “fold weaker binding of single mutant” value on Nt-hMLKL^F148A was ~ 10 fold. Also, the “PI-positive cells after Dox and coumermycin stimulation” value in data set [1] is recorded as “markedly reduced”. Besides, at Nt-hMLKL^C86A/L89A/D94A, the “binding in SPR” value is given as “no binding”.
Consider `CN1CCc2cccc3c2[C@@H]1Cc1ccc(O)c(O)c1-3` [S62, (6aS)-6-methyl-5,6,6a,7-tetrahydro-4H-dibenzo[de,g]quinoline-10,11-diol], for which the “time to saturation of APO oxidation” value in data set [2] is 24 h.
